Laboratory results: patent US6117878A, “8-phenyl- or 8-cycloalkyl xanthine antagonists of A2B human adenosine receptors” (priority 1998, dated 2000)
“Also recorded” adds a separate entry of the source.

Assays:
[1] = target: T1, recombinant human A2B adenosine receptors (Homo sapiens, UniProt P29275); assay: IP3 generation in HEK 293 cells transfected with recombinant human A2B adenosine receptors
T1 sequence (P29275 1-332): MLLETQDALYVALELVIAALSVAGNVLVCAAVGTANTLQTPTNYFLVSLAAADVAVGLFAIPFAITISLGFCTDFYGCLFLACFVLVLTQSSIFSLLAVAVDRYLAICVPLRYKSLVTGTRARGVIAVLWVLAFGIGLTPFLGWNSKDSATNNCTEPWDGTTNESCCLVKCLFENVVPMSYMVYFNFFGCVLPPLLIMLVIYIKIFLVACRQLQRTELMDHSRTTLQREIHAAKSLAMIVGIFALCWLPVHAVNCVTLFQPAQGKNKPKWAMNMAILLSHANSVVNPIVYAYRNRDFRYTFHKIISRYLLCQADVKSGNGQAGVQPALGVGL

[2] = target: T2, recombinant human A3 adenosine receptors (Homo sapiens, UniProt P0DMS8); assay: Competition radioligand binding to rhA3 adenosine receptors (Example 2); details: other subtypes than A2B; FIG. 2 and Table 1
T2 construct: expressed in transfected cells; host or cells: cells expressing the recombinant receptor
T2 sequence (P0DMS8 1-318): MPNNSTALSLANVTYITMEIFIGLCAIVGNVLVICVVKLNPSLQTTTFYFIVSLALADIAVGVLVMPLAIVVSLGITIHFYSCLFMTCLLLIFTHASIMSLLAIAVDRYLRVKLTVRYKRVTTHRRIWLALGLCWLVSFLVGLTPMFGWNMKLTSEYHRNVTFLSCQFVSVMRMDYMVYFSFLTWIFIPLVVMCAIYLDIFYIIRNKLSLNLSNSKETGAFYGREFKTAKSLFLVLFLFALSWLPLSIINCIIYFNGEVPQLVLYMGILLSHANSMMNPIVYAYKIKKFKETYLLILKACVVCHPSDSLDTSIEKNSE

[3] = target: T1, recombinant human A2B adenosine receptors; assay: Competition for [3H]DPX binding to rhA2B adenosine receptors (Example 2); set-up: expressed in transfected cells; host or cells: cells expressing the recombinant receptor
[4] = target: T3, recombinant human A1 adenosine receptors (Homo sapiens, UniProt P30542); assay: Competition binding screen, A1 (Table 1)
T3 construct: expressed in transfected cells
T3 sequence (P30542 1-326): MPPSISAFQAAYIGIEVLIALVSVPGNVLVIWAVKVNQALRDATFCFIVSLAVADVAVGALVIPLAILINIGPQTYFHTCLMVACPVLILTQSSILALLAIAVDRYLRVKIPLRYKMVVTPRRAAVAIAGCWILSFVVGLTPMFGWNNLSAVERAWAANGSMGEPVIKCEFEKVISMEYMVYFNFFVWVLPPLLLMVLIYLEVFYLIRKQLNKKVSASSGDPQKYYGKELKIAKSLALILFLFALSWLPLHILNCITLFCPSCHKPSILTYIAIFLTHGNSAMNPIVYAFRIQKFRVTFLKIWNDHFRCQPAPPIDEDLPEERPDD
Source text: (§1) A series of compounds was screened to identify potent A2B selective antagonists. This was done in competition binding assays using recombinant human A1, A2A, A2B or A3 adenosine receptors, similar to that illustrated in FIGS. 2A and 2B.

[5] = system: adenosine receptors; details: cited from earlier work
[6] = target: T1, recombinant human A2B adenosine receptors; assay: Calcium mobilization in HEK-293 cells transfected with recombinant human A2B adenosine receptors (FURA); type: cell-based; set-up: expressed in transfected cells; host or cells: cells expressing the recombinant receptor
Protocol: The activation of the phospholipase C pathway leads to intracellular calcium mobilization.
Calcium mobilization was measured in cells preloaded with FURA.

[7] = system: human HMC-1 mast cells; assay: Intracellular Ca2+ accumulation in HMC-1 mast cells (FURA); type: cell-based; details: FIG. 1A
[8] = system: human HMC-1 mast cells; assay: Cyclic AMP accumulation in HMC-1 mast cells (radioimmunoassay); type: cell-based; details: FIG. 1B
Protocol: Functional Responses Of Human HMC-1 Mast Cells to NECA and IB-MECA
In tests as described in "Canine Mast Cell Adenosine Receptors: Cloning and Expression of the A3 Receptor and Evidence that Degranulation is Mediated by the A2B Receptor," Molecular Pharmacology, 52:1-15 (1997) to, Auchampapch et al., that reference being incorporated herein by reference, intact cells were treated with the A3-selective agonist IB-MECA and the nonselective agonist NECA.
FIGS. 1A and 1B show (A) Intracellular Ca^2+ accumulation measured in cells pretreated with the Ca^2+ -sensitive fluorescent reporter, FURA and (B) Cyclic AMP accumulation measured by radioimmunoassay. The results are typical of triplicate experiments.

[9] = target: T4, rhA2B adenosine receptors (Homo sapiens, UniProt P29275); assay: NECA-stimulated cyclic AMP accumulation in HEK 293 cells transfected with rhA2B adenosine receptors, Schild analysis; type: cell-based; details: cAMP, cells expressing rhA2B
T4 construct: expressed in transfected cells; host or cells: HEK 293 cells, stably transfected
T4 sequence (P29275 1-332): T1 sequence (P29275 1-332)
Source text: Agonists were used to modulate cAMP in HEK 293 cells stably transfected the rhA2B adenosine receptors or rhA3 adenosine receptors.

[10] = target: T5, recombinant human A2A adenosine receptors (Homo sapiens, UniProt P29274); assay: Competition binding screen, A2A (Table 1)
T5 construct: expressed in transfected cells
T5 sequence (P29274 whole entry): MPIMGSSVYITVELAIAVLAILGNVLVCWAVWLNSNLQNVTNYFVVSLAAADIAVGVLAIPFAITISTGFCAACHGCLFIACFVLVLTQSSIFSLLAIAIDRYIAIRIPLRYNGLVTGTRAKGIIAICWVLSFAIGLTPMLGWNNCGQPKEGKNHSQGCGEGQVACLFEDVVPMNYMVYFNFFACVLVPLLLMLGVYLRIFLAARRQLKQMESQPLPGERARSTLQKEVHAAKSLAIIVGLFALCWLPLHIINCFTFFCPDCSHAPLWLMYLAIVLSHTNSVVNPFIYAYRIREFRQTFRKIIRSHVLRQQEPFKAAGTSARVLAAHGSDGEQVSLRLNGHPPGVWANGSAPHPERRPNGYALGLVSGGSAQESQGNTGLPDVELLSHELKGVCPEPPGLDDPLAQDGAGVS
Source text: (§2) This was done in competition binding assays using recombinant human A1, A2A, A2B or A3 adenosine receptors, similar to that illustrated in FIGS. 2A and 2B.

[11] = target: T1, recombinant human A2B adenosine receptors; assay: Competition binding screen, A2B (Table 1); set-up: expressed in transfected cells; host or cells: cells expressing the recombinant receptor
Source text: as §2

[12] = target: T2, recombinant human A3 adenosine receptors; assay: Competition binding screen, A3 (Table 1)
Source text: as §1

| Structure (SMILES) | Block of increase in IP3 produced by 10 μM NECA ([1]; 250 μM antagonist) | Antagonism of other adenosine receptor subtypes [2] | Affinity for human A2B versus human A3 adenosine receptors ([3]; competition binding, FIGS. 2A and 2B) | Block of recombinant human A2B adenosine receptors ([3]; therapeutic concentration range of 20-50 μM, FIG. 2 and Table 1) | Ki [4] [µM] | Binding to adenosine receptors (literature) ([5]; Lunell et al.) | Block of adenosine receptors (literature) ([5]; enprofylline: therapeutic concentration range of 20-50 uM, examined at A1 and A2A only) | Block of Ca2+ response induced by 1 μM NECA ([6]; 100 μM antagonist) | Stimulation of calcium mobilization ([7]; worded as canine mast cells) | Intracellular Ca2+ accumulation / calcium mobilization ([7]; human mast cell line HMC-1) | Increase in IP3 formation ([1]; NECA at 10 μM, rhA2B transfected HEK 293) [fold] | Stimulation of cyclic AMP accumulation ([8]; worded as canine mast cells) | Cyclic AMP accumulation ([8]; human mast cell line HMC-1) | Functional response to agonist [9] | Increase in intracellular Ca2+ content ([6]; human A2B transfected cells) | Ki [10] [nM] | Ki [11] [nM] | Ki [12] [nM] |
| --- | --- | --- | --- | --- | --- | --- | --- | --- | --- | --- | --- | --- | --- | --- | --- | --- | --- | --- |
| CCCn1c(=O)[nH]c(=O)c2[nH]cnc21 [enprofylline] | able to block the increase in IP3 | much weaker antagonist of other adenosine receptor subtypes | higher affinities for human A2B adenosine receptors than for human A3 adenosine receptors | blocks recombinant human A2B adenosine receptors | 156 | bind weakly to adenosine receptors | found not to block adenosine receptors | totally blocks | – | – | – | – | – | – | – | – | – | – |
| CCNC(=O)[C@H]1O[C@@H](n2cnc3c(N)ncnc32)[C@H](O)[C@@H]1O [NECA, 5-N-ethylcarboxamidoadenosine] | – | – | – | – | – | – | – | – | stimulates canine mast cells to mobilize calcium | stimulates human mast cells to mobilize calcium; also recorded: causes intracellular Ca^2+ and cyclic AMP accumulation | 3.5 | stimulates canine mast cells to mobilize calcium and to accumulate cyclic AMP | stimulates human mast cells to mobilize calcium and to accumulate cyclic AMP; also recorded: causes intracellular Ca^2+ and cyclic AMP accumulation | dose-dependent functional response | dose-dependent increase in intracellular Ca^2+ content | – | – | – |
| O=C(O)C=Cc1ccc(-c2nc3c([nH]2)c(=O)n(CC2CCCCC2)c(=O)n3CC2CCCCC2)cc1 [BW-A493] | – | – | – | – | 4.98 ± 0.553 | – | – | – | – | – | – | – | – | – | – | 1520 ± 797 | 198 ± 52 | 922 ± 399 |
